The source of these data is PMC4469915 (Molecules and Cells, 2015).

For one assay, the target named is T1, apoA4 (Homo sapiens, UniProt P06727).
T1 sequence (P06727 21-396): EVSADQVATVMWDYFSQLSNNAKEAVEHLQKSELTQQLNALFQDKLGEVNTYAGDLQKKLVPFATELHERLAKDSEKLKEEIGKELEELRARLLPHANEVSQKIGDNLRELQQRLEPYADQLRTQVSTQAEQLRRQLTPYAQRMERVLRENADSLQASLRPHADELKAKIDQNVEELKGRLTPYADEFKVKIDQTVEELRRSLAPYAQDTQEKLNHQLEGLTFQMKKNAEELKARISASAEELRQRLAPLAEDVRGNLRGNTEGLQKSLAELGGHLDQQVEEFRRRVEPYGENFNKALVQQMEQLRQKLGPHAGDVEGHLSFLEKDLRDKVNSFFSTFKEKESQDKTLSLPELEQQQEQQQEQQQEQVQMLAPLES
Put plainly: DMPC multilamellar liposome clearance, absorbance at […] nm. The conditions noted are these: lipid-free protein; liposomes; protein:DMPC 2:1 mol/mol as printed; 24.5°C. In kind it is binding.

The next assay has as its target apoA-I (Homo sapiens, UniProt P02647). Described as above. Format: binding. As to conditions: lipid-free protein; liposomes; protein:DMPC 2:1 mol/mol as printed; 24.5°C.

Sequence of apoA-I (P02647 25-267): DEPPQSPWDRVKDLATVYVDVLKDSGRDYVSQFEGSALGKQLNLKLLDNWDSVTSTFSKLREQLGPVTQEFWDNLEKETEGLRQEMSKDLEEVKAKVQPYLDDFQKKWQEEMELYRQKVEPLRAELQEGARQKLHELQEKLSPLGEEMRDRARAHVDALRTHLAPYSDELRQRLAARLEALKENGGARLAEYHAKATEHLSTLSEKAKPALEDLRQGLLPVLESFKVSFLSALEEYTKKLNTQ

On to `CCCCCCCCCCCCCC(=O)OC[C@H](COP(=O)([O-])OCC[N+](C)(C)C)OC(=O)CCCCCCCCCCCCC` [DMPC], for which the T1/2 at apoA4 came to 62 ± 10 min; on apoA-I, 11 ± 1 min.
